We go through 38 compounds from patent US20240389581A1, “SYNERGISTIC PESTICIDAL COMPOSITIONS AND METHODS FOR DELIVERY OF INSECTICIDAL ACTIVE INGREDIENTS” (TERRAMERA, INC., priority 2021, published 2024).

In test [1] the test system is Trichoplusia ni (cabbage looper) larvae. Nature of the test: In-vitro insecticidal efficacy (mortality and bioactivity, treated artificial diet, Abbott and Colby formulas) against Trichoplusia ni. The note with it: aliphatic acid (salt) 500 ppm, alone or combined; for Survival Rate (100-(mortality + stunted)): Table 70B, Coragen 0.505 ppm (0.09292 ppm chlorantraniliprole). Format: in vivo. On the procedure:
An artificial diet suitable for Trichoplusia ni (cabbage looper caterpillar) was prepared from a commercially available general purpose lepidoptera artificial diet premix (such as General Purpose Lepidoptera Diet available from Frontier Scientific Services, Newark, DE) and mixed in a heated liquid agar media (0.022 g agar per ml of water). The liquid artificial diet and agar media was then used to fill each well of a transparent 96-well treatment plate with 200 μL of the artificial diet and agar media, which was allowed to solidify at room temperature and stored at approximately 4 C.
A 20 μL treatment sample of each treatment formulation was then placed on top of the solidified artificial diet media in a well of a 96 well plate and allowed to dry overnight.
The following day, one neonate Trichoplusia ni (cabbage looper) larva (hatched from eggs obtained from the Benzon Research, Inc. of Carlisle, PA, USA) was added to each well of the plate, after which the wells were sealed with a perforated transparent film, allowing air and moisture exchange. The plates were kept in a suitable regulated indoor incubation environment and the larvae were allowed to feed on the treatment overlaid diet/agar media for 5 days. […] Each experiment contained 8 replicates (larvae cells) for each treatment.
(§1) While for SF<1, antagonism is present and for SF=1, the efficacy of the compounds is merely additive.
The following day, one neonate Trichoplusia ni (cabbage looper) larva (hatched from eggs such as available from Benzon Research, Inc. of Carlisle, PA, USA) was added to each well of the plate, after which the wells were sealed with a perforated transparent film, allowing air and moisture exchange. The plates were kept in a suitable regulated indoor incubation environment and the larvae were allowed to feed on the treatment overlaid diet/agar media for 5 days. […] Each experiment contained 8 replicates (larvae cells) for each treatment.
as §1

Test [2] has the same test system. Description: In-planta insecticidal efficacy (sprayed green cabbage plants, larval survival, Abbott and Colby formulas) against Trichoplusia ni. Format: in vivo. The note with it: Exirel at […] ([…] cyantraniliprole), aliphatic acids at 750 ppm; for Observed Efficacy, W (%): Abbott formula vs 10% isopropanol control; for Survival Rate (%): in-planta, T. ni larvae on sprayed cabbage, 10% isopropanol. On the procedure:
Water and 10% isopropanol were tested as control treatments.
Green cabbage plants (Brassica oleracea var. capitate, Danish Ballhead cultivar) were grown from seed (available from West Coast Seeds, Delta, BC, Canada) in potting soil for 4-6 weeks in a pest-free indoor growing environment. At between 4-6 weeks of age, each cabbage plant was sprayed with 20 mL of treatment solution using a pressurized CO2 sprayer from approximately 18 inches above the plant, and allowed to dry.
as §1
Cyantraniliprole was provided as the active ingredient in Exirel® insecticide (available from FMC Corp., Philadephia, PA, USA), and is present as 10% w/w of the Exirel® insecticide product formulation.

The test system is the same in test [3]. The test is described as above. Format: in vivo. The note with it: aliphatic acid 750 ppm, alone or combined; for Observed Efficacy, W: Abbott formula.
A further test deals with Fusarium oxysporum. Description: Synergistic Growth Inhibition Assay (MIC / FIC index, 96-well microtiter, resazurin) against Fusarium oxysporum. The settings on record: Compound B tested alone; 24 hour incubation. Format: cell-based. Here is the method: In the Synergistic Growth Inhibition Assay used in accordance with some embodiments of the present disclosure, multiple dilutions of combinations of pesticidal active ingredient and at least one C6-C10 saturated or unsaturated aliphatic acid agents are tested in individual cells for inhibitory activity against a target pest or pathogenic organism. […] In a further such embodiment, the combinations of pesticidal active ingredient and C6-C10 (or alternatively C11 or C12) saturated or unsaturated aliphatic acid agents may be tested in increasing concentrations.
Thus, each well of the microtiter plate is a unique combination of the two agents, at which inhibitory efficacy of the combination against the target pest or pathogen can be determined.
In one embodiment according to the present disclosure, for each row of microtiter cells in the Synergistic Growth Inhibition Assay, the FIC index is calculated from the lowest concentration of the pesticidal active ingredient and one or more C6-C10 saturated or unsaturated aliphatic acid agents necessary to inhibit growth of a target pest or pathogen. The FIC of each component is derived by dividing the concentration of the agent present in that well of the microtiter plate by the minimal inhibitory concentration (MIC) needed of that agent alone to inhibit growth of the target pest or pathogen. […] The FIC index is calculated for each row as follows: […]
(Alamar Blue is a resazurin reagent that responds to reducing activity.)

[4] abbreviates: Table 69B, Coragen 0.2525 ppm (0.04646 ppm chlorantraniliprole), in-vitro.
Setting [5] is: Table 72, Coragen […] (0.104 ppm chlorantraniliprole).
[6] abbreviates: Table 71, Coragen […] (0.105 ppm chlorantraniliprole).

On to `CCCCC(CC)C(=O)O` (stereo not drawn) [2-ethylhexanoic acid], for which the “Survival Rate (100-(mortality + stunting))” value in test [1] (setting [4]) came out at 95.83%.

As to `CCCCC(O)C(=O)O` (stereo not drawn) [2-hydroxyhexanoic acid], the “Survival Rate (100-(mortality + stunting))” value in test [1] (setting [4]) was found to be 91.67%.

Consider `CCCCCCC(O)C(=O)O` (stereo not drawn) [2-hydroxyoctanoic acid], for which the “Survival Rate (100-(mortality + stunting))” value in test [1] (setting [4]) amounted to 100.00%.

Turning to `CCCCCCCCC(C)C(=O)O` (stereo not drawn) [2-methyldecanoic acid], the “Survival Rate (100-(mortality + stunting))” value in test [1] (setting [4]) is reported as 87.50%.

Regarding `CCCCCCC(C)C(=O)O` (stereo not drawn) [2-methyloctanoic acid], the “Survival Rate (100-(mortality + stunting))” value in test [1] (setting [4]) was 95.83%.

Take `CC(O)CC(=O)O` (stereo not drawn) [3-Hydroxybutyric acid, 3-hydroxybutyric acid]: the “Survival Rate (100-(mortality + stunting))” value in test [1] (setting [4]) was 95.83%.

For `CCCCC=CCC(=O)O` [3-Octenoic acid, 3-octenoic acid], the “Survival Rate (100-(mortality + stunting))” value in test [1] (setting [4]) amounted to 83.33%.

Turning to `CCCC=CCC(=O)O` [3-heptenoic acid], in test [1] (in-vitro), the “Survival Rate (100-(mortality + stunted))” value came out at 95.83%.

Take `CCCCCCCC(O)CC(=O)O` (stereo not drawn) [3-hydroxdecanoic acid]: the “Survival Rate (100-mortality)” value in test [1] (Table 69A, Coragen 0.2525 ppm (0.04646 ppm chlorantraniliprole), in-vitro) is reported as 100.00%. Further, the “Observed Efficacy (mortality), W” value in test [1] (Table 69A, Coragen 0.2525 ppm, Abbott formula) is 0.00%. For the same compound, the “Survival Rate (100-(mortality + stunting))” value in test [1] (setting [4]) is recorded as 87.50%. Besides, the “Observed Efficacy (bioactivity), W” value in test [1] (Table 69B, bioactivity = mortality + growth stunting, Coragen 0.2525 ppm, Abbott formula) was 0.00%.

For the compound `CCCC(C)CC(=O)O` (stereo not drawn) [3-methylhexanoic acid], the “Survival Rate (100-(mortality + stunting))” value in test [1] (setting [4]) is recorded as 83.33%.

With `CCCCCCC(C)CC(=O)O` (stereo not drawn) [3-methylnonanoic acid], in test [1] (setting [4]), the “Survival Rate (100-(mortality + stunting))” value is 79.17%.

As for `CCCCCC=CCC(=O)O` [3-nonenoic acid], the “Survival Rate (100-(mortality + stunted))” value in test [1] (in-vitro) is 95.83%.

Take `CCC(C)CCC(=O)O` (stereo not drawn) [4-methylhexanoic acid]: in test [1] (setting [4]), the “Survival Rate (100-(mortality + stunting))” value is 100.00%.

For the compound `C=CCCCC(=O)O` [5-hexenoic acid], the “Survival Rate (100-(mortality + stunting))” value in test [1] (setting [4]) turned out to be 100.00%.

For `C=CCCCCCCCC(=O)O` [9-Decenoic acid, 9-decenoic acid], in test [1] (setting [4]), the “Survival Rate (100-(mortality + stunting))” value is recorded as 91.67%. For the same compound, in test [2], the “Observed Efficacy, W (%)” value is −0.4% and the “Survival Rate (%)” value turned out to be 65.8%.

Turning to `O=C(O)CCCCCCCCCO` [10-hydroxydecanoic acid], in test [1] (setting [4]), the “Survival Rate (100-(mortality + stunting))” value is given as 75.00%. Moreover, the “Survival Rate” value stood at 73.50% in test [3] (setting [5]) and 40.50% in test [3] (Table 73, Coragen […] (0.104 ppm chlorantraniliprole)). Moreover, the “Observed Efficacy, W” value in test [3] (Table 72, Coragen […]) turned out to be 0.00%; in test [3] (Table 73, Coragen […]) it was 36.72%.

With `O=C(O)CCCCCCCCCCCO` [12-hydroxydodecanoic acid], the “Survival Rate (100-(mortality + stunting))” value in test [1] (setting [4]) turned out to be 91.67%.

Turning to `C/C=C/C=C/C(=O)[O-].[K+]` [(2E,4E)-2,4 hexadienoic acid potassium salt], the “Survival Rate (100-(mortality + stunting))” value in test [1] (setting [4]) was 95.83%. In addition, the “Survival Rate (100-(mortality + stunted))” value in test [1] (in-vitro) is on record as 70.83%.

As to `C/C=C/C=C/C(=O)O` [(2E,4E)-2,4 hexadienoic acid], the “Survival Rate (100-(mortality + stunting))” value in test [1] (setting [4]) is reported as 79.17%.

As for `C/C=C/C=C/C(=O)O` [(2E,4E)-2,4-hexadienoic acid], the “MIC (B)” value with Fusarium oxysporum was determined as 125 µg/mL.

Regarding `CCCCCCCCCC(=O)O` [Decanoic acid], the “Survival Rate (100-(mortality + stunting))” value in test [1] (setting [4]) is 83.33%.

`CCCCCCCCCCCC(=O)O` [Dodecanoic acid]: in test [1] (setting [4]), the “Survival Rate (100-(mortality + stunting))” value came to 79.17%.

`CCCCCCC(=O)O` [Heptanoic acid]: the “Survival Rate (100-(mortality + stunting))” value in test [1] (setting [4]) is 91.67%.

For the compound `CCCCCC(=O)O` [Hexanoic acid], the “Survival Rate (100-(mortality + stunting))” value in test [1] (setting [4]) amounted to 87.50%. In test [1] (in-vitro), the “Survival Rate (100-(mortality + stunted))” value turned out to be 100%. In the test with Fusarium oxysporum, the “MIC (B)” value is 290 µg/mL.

Take `CCCCCCCCC(=O)O` [Nonanoic acid]: in test [1] (setting [4]), the “Survival Rate (100-(mortality + stunting))” value stood at 95.83%. Also, in test [1] (in-vitro), the “Survival Rate (100-(mortality + stunted))” value is recorded as 62.50%.

For the compound `CCCCCCCC(=O)O` [Octanoic acid], in test [1] (in-vitro), the “Survival Rate (100-(mortality + stunted))” value is recorded as 95.83%.

As for `CCCCCCCCCC(=O)[O-].[K+]` [Potassium Caprate], in test [2], the “Observed Efficacy, W (%)” value is on record as 5.5% and the “Survival Rate (%)” value stood at 69.7%.

As for `CCCCCCC/C=C/C(=O)O` [Trans-2-decenoic acid, trans-2-decenoic acid], the “Survival Rate (100-(mortality + stunting))” value in test [1] (setting [4]) was 79.17%. Also, the “Survival Rate” value in test [3] (setting [5]) is on record as 81.00%. In addition, in test [3] (Table 72, Coragen […]), the “Observed Efficacy, W” value stood at 0.00%. For the same compound, in test [2], the “Survival Rate (%)” value is on record as 66.1%.

Regarding `CCC/C=C/C(=O)O` [Trans-2-hexenoic acid, trans-2-hexenoic acid], the “Survival Rate (100-(mortality + stunting))” value in test [1] (setting [4]) is given as 91.67%. The “Survival Rate” value in test [3] (setting [6]) is 56.50%. Also, the “Observed Efficacy, W” value in test [3] (Table 71, Coragen […]) is on record as 18.71%.

As to `CCCCC/C=C/C(=O)O` [Trans-2-octenoic acid, trans-2-octenoic acid], in test [1] (setting [4]), the “Survival Rate (100-(mortality + stunting))” value worked out at 70.83%. Also, the “Survival Rate (100-(mortality + stunted))” value in test [1] (in-vitro) was determined as 87.50%. Besides, the “Survival Rate” value in test [3] (setting [5]) was found to be 77.00%. In addition, the “Observed Efficacy, W” value in test [3] (Table 72, Coragen […]) is on record as 0.00%.

As to `CC/C=C/CC(=O)O` [Trans-3-hexenoic acid, trans-3-hexenoic acid], the “Survival Rate (100-(mortality + stunting))” value in test [1] (setting [4]) is 91.67%. In addition, in test [3] (setting [6]), the “Survival Rate” value was 64.50%. Besides, in test [3] (Table 71, Coragen […]), the “Observed Efficacy, W” value amounted to 7.19%.

Take `CC/C=C\CC(=O)O` [cis-3-hexenoic acid]: the “Survival Rate (100-(mortality + stunting))” value in test [1] (setting [4]) came out at 83.33%.

In the case of `CCC/C=C/C(=O)[O-].[K+]` [trans-2-Hexenoic acid, potassium salt], in test [2], the “Observed Efficacy, W (%)” value is 11.3% and the “Survival Rate (%)” value is listed as 73.6%.

In the case of `CCC/C=C/C(=O)[O-].[K+]` [trans-2-hexenoic acid potassium salt], in test [1] (setting [4]), the “Survival Rate (100-(mortality + stunting))” value was 91.67%. Besides, the “Survival Rate (100-(mortality + stunted))” value in test [1] (in-vitro) was determined as 83.33%.

Consider `CCCCCC/C=C/C(=O)O` [trans-2-nonenoic acid], for which the “Survival Rate (100-(mortality + stunting))” value in test [1] (setting [4]) was determined as 75.00%. In test [1] (in-vitro), the “Survival Rate (100-(mortality + stunted))” value stood at 100%.

For the compound `CCCCCCCC/C=C/C(=O)O` [trans-2-undecenoic acid], the “Survival Rate (100-(mortality + stunting))” value in test [1] (setting [4]) is 87.50%.

For `CC/C=C/CC(=O)[O-].[K+]` [trans-3-Hexenoic acid, potassium salt], in test [2], the “Observed Efficacy, W (%)” value was determined as 7.1% and the “Survival Rate (%)” value amounted to 70.8%.

On to `CCCC/C=C/CC(=O)O` [trans-3-octenoic acid], for which the “Survival Rate (100-(mortality + stunting))” value in test [1] (setting [4]) is 83.33%.
